The values below come from US11958844B2, “1,3,4-oxadiazole derivative compounds as histone deacetylase 6 inhibitor, and pharmaceutical composition comprising the same” (Chong Kun Dang Pharmaceutical Corp., priority 2018, dated 2024).

The target of the assay is T1, HDAC6 human recombinant (Homo sapiens, UniProt Q9UBN7).
T1 sequence (Q9UBN7 1-1215): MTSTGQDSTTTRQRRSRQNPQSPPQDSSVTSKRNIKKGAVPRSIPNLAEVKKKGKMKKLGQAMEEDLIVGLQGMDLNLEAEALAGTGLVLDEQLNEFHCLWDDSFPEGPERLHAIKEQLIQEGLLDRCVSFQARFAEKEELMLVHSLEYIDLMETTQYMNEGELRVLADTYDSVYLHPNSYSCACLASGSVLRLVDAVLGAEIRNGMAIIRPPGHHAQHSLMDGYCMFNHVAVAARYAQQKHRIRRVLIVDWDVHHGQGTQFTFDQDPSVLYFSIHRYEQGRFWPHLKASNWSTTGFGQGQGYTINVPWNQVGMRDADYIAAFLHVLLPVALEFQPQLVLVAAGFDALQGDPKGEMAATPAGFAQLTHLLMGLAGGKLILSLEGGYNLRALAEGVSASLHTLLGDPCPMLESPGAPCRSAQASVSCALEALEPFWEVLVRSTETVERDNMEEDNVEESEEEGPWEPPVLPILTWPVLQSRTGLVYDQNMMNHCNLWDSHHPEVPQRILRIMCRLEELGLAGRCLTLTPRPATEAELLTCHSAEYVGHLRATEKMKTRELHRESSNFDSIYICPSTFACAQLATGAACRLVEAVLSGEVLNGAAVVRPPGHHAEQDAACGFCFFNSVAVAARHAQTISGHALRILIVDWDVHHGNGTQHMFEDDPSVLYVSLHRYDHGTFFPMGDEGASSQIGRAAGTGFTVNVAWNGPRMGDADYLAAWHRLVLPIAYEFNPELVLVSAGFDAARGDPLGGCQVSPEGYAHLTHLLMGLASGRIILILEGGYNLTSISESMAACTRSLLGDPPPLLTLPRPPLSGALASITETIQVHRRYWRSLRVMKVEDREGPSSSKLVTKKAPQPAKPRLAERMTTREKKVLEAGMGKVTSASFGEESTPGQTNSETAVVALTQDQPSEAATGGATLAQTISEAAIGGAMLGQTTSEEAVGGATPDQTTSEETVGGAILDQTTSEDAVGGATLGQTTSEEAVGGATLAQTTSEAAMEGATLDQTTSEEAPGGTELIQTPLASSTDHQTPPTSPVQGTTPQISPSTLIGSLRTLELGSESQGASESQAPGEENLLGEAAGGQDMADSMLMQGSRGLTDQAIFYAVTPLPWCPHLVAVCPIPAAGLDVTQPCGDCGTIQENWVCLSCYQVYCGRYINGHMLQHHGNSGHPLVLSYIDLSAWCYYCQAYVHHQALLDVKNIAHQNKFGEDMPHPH
In words: HDAC enzyme activity inhibition (in vitro), fluorimetric HDAC6 assay. It is filed as biochemical. The following applies: samples at 0.1, 1, 10, 100 and 1000 nM, 37° C. 60 minutes, fluorescence Ex 390, Em 460. On the procedure: To identify this, HDAC1/6 enzyme selectivity and cell selectivity (HDAC1: histone acetylation/HDAC6: tubulin acetylation) were investigated accordingly.
An HDAC enzyme inhibitory ability of a test material was measured by means of HDAC1 Fluorimetric Drug Discovery Assay Kit (Enzolifesciences: BML-AK511) and HDAC6 human recombinant (Calbiochem: 382180). For an HDAC1 assay, samples were treated at a concentration of 100, 1000 and 10000 nM. For an HDAC6 assay, samples were treated at a concentration of 0.1, 1, 10, 100 and 1000 nM. After such sample treatment, a reaction was continued at 37° C. for 60 minutes, then treated with a developer, and then subjected to reaction at 37° C. for 30 minutes, after which fluorescence intensity (Ex 390, Em 460) was measured by means of FlexStation3 (Molecular device).

SMILES strings stand for the structures.

Broadly, the IC50 is the midpoint of a concentration-inhibition curve. For the compound `O=c1cc(-c2nnc(C(F)F)o2)ccn1Cc1cc(F)ccc1F` [Compound 10, 1-(2,5-difluorobenzyl)-4-(5-(difluoromethyl)-1,3,4-oxadiazole-2-yl)pyridine-2(1H)-one], the IC50 was 217 nM.
On to `O=c1cc(-c2nnc(C(F)(F)F)o2)ccn1Cc1ccccc1F` [Compound 32, 1-(2-fluorobenzyl)-4-(5-(trifluoromethyl)-1,3,4-oxadiazole-2-yl)pyridine-2(1H)-one], for which the IC50 amounted to 2420 nM.
With `O=C(Cn1ccc(-c2nnc(C(F)(F)F)o2)cc1=O)c1ccc2ccccc2c1` [Compound 41, 1-(2-(naphthalene-2-yl)-2-oxoethyl)-4-(5-(trifluoromethyl)-1,3,4-oxadiazole-2-yl)pyridine-2(1H)-one], the IC50 amounted to 5180 nM.
Consider `O=c1cc(-c2nnc(C(F)F)o2)ccn1Cc1noc(C(F)(F)F)n1` [Compound 28, 4-(5-(difluoromethyl)-1,3,4-oxadiazole-2-yl)-1-((5-(trifluoromethyl)-1,2,4-oxadiazole-3-yl)methyl)pyridine-2(1H)-one], for which the IC50 worked out at 156 nM.
`O=c1cc(-c2nnc(C(F)(F)F)o2)ccn1Cc1cccc(F)c1` [Compound 31, 1-(3-fluorobenzyl)-4-(5-(trifluoromethyl)-1,3,4-oxadiazole-2-yl)pyridine-2(1H)-one]: the IC50 was found to be 1100 nM.
Regarding `O=C(Cn1ccc(-c2nnc(C(F)F)o2)cc1=O)c1ccccc1` [Compound 3, 4-(5-(difluoromethyl)-1,3,4-oxadiazole-2-yl)-1-(2-oxo-2-phenylethyl)pyridine-2(1H)-one], the IC50 was 210 nM.
With `CCC(CC)Cn1ccc(-c2nnc(C(F)F)o2)cc1=O` [Compound 27, 4-(5-(difluoromethyl)-1,3,4-oxadiazole-2-yl)-1-(2-ethylbutyl)pyridine-2(1H)-one], the IC50 was 726 nM.
`O=c1cc(-c2nnc(C(F)F)o2)ccn1Cc1cc(F)c(F)cc1F` [Compound 13, 4-(5-(difluoromethyl)-1,3,4-oxadiazole-2-yl)-1-(2,4,5-trifluorobenzyl)pyridine-2(1H)-one]: the IC50 was determined as 306 nM.
For the compound `O=c1cc(-c2nnc(C(F)F)o2)ccn1CCn1cccn1` [Compound 6, 1-(2-(1H-pyrazole-1-yl)ethyl)-4-(5-(difluoromethyl)-1,3,4-oxadiazole-2-yl)pyridine-2(1H)-one], the IC50 is 456 nM.
To `CS(=O)(=O)c1ccc(C(=O)Cn2ccc(-c3nnc(C(F)(F)F)o3)cc2=O)cc1` [Compound 35, 1-(2-(4-(methylsulfonyl)phenyl)-2-oxoethyl)-4-(5-(trifluoromethyl)-1,3,4-oxadiazole-2-yl)pyridine-2(1H)-one] belongs 2210 nM.
In the case of `O=C(Cn1ccc(-c2nnc(C(F)F)o2)cc1=O)c1ccc(Cl)c(Cl)c1` [Compound 18, 1-(2-(3,4-dichlorophenyl)-2-oxoethyl)-4-(5-(difluoromethyl)-1,3,4-oxadiazole-2-yl)pyridine-2(1H)-one], the IC50 turned out to be 509 nM.
`O=c1cc(-c2nnc(C(F)F)o2)ccn1Cc1ccccc1Cl` [Compound 12, 1-(2-chlorobenzyl)-4-(5-(difluoromethyl)-1,3,4-oxadiazole-2-yl)pyridine-2(1H)-one]: the IC50 came to 631 nM.
To `O=C(Cn1ccc(-c2nnc(C(F)F)o2)cc1=O)c1ccc([N+](=O)[O-])cc1` [Compound 25, 4-(5-(difluoromethyl)-1,3,4-oxadiazole-2-yl)-1-(2-(4-nitrophenyl)-2-oxoethyl)pyridine-2(1H)-one] belongs 239 nM; to `C=C(C)Cn1ccc(-c2nnc(C(F)F)o2)cc1=O` [Compound 52, 4-(5-(difluoromethyl)-1,3,4-oxadiazole-2-yl)-1-(2-methylallyl)pyridine-2(1H)-one], 377 nM; to `CC(C)=CCn1ccc(-c2nnc(C(F)(F)F)o2)cc1=O` [Compound 48, 1-(3-methylbut-2-en-1-yl)-4-(5-(trifluoromethyl)-1,3,4-oxadiazole-2-yl)pyridine-2(1H)-one], 1670 nM.
As for `O=C(OCCn1ccc(-c2nnc(C(F)F)o2)cc1=O)c1ccccc1` [Compound 16, 2-(4-(5-(difluoromethyl)-1,3,4-oxadiazole-2-yl)-2-oxopyridine-1(2H)-yl)ethyl], the IC50 turned out to be 952 nM.
In the case of `O=C(Cn1ccc(-c2nnc(C(F)(F)F)o2)cc1=O)c1ccc(Cl)cc1` [Compound 34, 1-(2-(4-chlorophenyl)-2-oxoethyl)-4-(5-(trifluoromethyl)-1,3,4-oxadiazole-2-yl)pyridine-2(1H)-one], the IC50 was determined as 2320 nM.
For the compound `O=c1cc(-c2nnc(C(F)(F)F)o2)ccn1Cc1cc(F)ccc1F` [Compound 33, 1-(2,5-difluorobenzyl)-4-(5-(trifluoromethyl)-1,3,4-oxadiazole-2-yl)pyridine-2(1H)-one], the concentration for half-maximal inhibition (IC50) stood at 1270 nM.
Turning to `O=c1cc(-c2nnc(C(F)F)o2)ccn1CCC1OCCCO1` [Compound 9, 1-(2-(1,3-dioxane-2-yl)ethyl)-4-(5-(difluoromethyl)-1,3,4-oxadiazole-2-yl)pyridine-2(1H)-one], the IC50 was 247 nM.
Take `O=C(OCCn1ccc(-c2nnc(C(F)(F)F)o2)cc1=O)c1ccccc1` [Compound 39, 2-(2-oxo-4-(5-(trifluoromethyl)-1,3,4-oxadiazole-2-yl)pyridine-1(2H)-yl)ethyl benzoate]: the IC50 is 900 nM.
Regarding `Cc1cc(C(=O)Cn2ccc(-c3nnc(C(F)F)o3)cc2=O)c(F)cc1Cl` [Compound 23, 1-(2-(4-chloro-2-fluoro-5-methylphenyl)-2-oxoethyl)-4-(5-(difluoromethyl)-1,3,4-oxadiazole-2-yl)pyridine-2(1H)-one], the IC50 was 598 nM.
Consider `O=C(N[C@@H](Cn1ccc(-c2nnc(C(F)F)o2)cc1=O)c1ccccc1)N1CCS(=O)(=O)CC1` [Compound 58, (R)—N-(2-(4-(5-(difluoromethyl)-1,3,4-oxadiazole-2-yl)-2-oxopyridine-1(2H)-yl)-1-phenylethyl)thiomorpholine-4-carboxamide 1,1-dioxide], for which the IC50 came out at 358 nM.
On to `O=C(C(Cn1ccc(-c2nnc(C(F)F)o2)cc1=O)c1ccccc1)N1CCOCC1` (stereo not drawn) [Compound 45, 4-(5-(difluoromethyl)-1,3,4-oxadiazole-2-yl)-1-(3-morpholino-3-oxo-2-phenylpropyl)pyridine-2(1H)-one], for which the concentration for half-maximal inhibition (IC50) came out at 290 nM.
With `O=C(C(Cn1ccc(-c2nnc(C(F)F)o2)cc1=O)c1ccccc1)N1CCS(=O)(=O)CC1` (stereo not drawn) [Compound 44] the figure was 382 nM.
